Series [1] has as its system mouse. The following applies: Subchronic oral toxicity in rodents, cd1, Feed, dose end: 90 day, group: systemic, systemic / organ weight / liver / absolute + systemic / organ weight / liver / relative to body weight + systemic / organ weight / liver / ….
Series [2] has as its system mouse. As to conditions: Carcinogenicity; cd1; Oral; Feed; dose end: 18 month; group: systemic; systemic / organ weight / liver / nos + systemic / pathology microscopic / liver / deformity + systemic / pathology microscopic / liver / ….
Series [3] relates to rat. As to conditions: Multigenerational reproductive toxicity study, other, Oral, Feed, dose end: 2 generation.
For series [4], the system named is rat. As to conditions: Combined chronic toxicity/carcinogenicity, sprague dawley, Oral, Feed, dose end: 104 week, group: systemic.
The subject of series [5] is mouse. The following applies: Carcinogenicity; cd1; Oral; Feed; dose end: 18 month; group: systemic; systemic / pathology microscopic / liver / hypertrophy.
Series [6] deals with dog. The following applies: Chronic toxicity, beagle, Oral, Feed, dose end: 52 week, group: systemic.
Series [7] deals with dog. As to conditions: Chronic toxicity, beagle, Oral, Feed, dose end: 26 week, group: systemic.
Series [8] has as its system rat. The following applies: Carcinogenicity, fischer, Oral, Water, dose end: 104 week, group: systemic.
Series [9] concerns mouse. The following applies: Carcinogenicity; other; Injection; Intraperitoneal; dose end: 50 week; group: systemic; systemic / pathology microscopic / lung / adenoma + systemic / pathology microscopic / lymph node / leukemia granulocytic + systemic / ….
Series [10] relates to mouse. The following applies: Subchronic oral toxicity in rodents, b6c3f1, Gavage/Intubation, dose end: 20 week, group: systemic, systemic / pathology microscopic / liver / hyperplasia + systemic / pathology microscopic / stomach / hyperkeratosis + systemic / pathology ….
The test system of series [11] is mouse. The following applies: Carcinogenicity; b6c3f1; Oral; Gavage/Intubation; dose end: 2 year; group: systemic; systemic / pathology microscopic / stomach / carcinoma + systemic / pathology microscopic / stomach / papilloma + systemic / in life ….
In series [12] the test system is rat. The following applies: Carcinogenicity, fischer, Oral, Gavage/Intubation, dose end: 2 year, group: systemic.
Series [13] deals with rat. As to conditions: Combined chronic toxicity/carcinogenicity; sprague dawley; Oral; Gavage/Intubation; dose end: 52 week; group: systemic; systemic / pathology microscopic / stomach / [other] + systemic / pathology microscopic / stomach / carcinoma + systemic / pathology ….
For series [14], the system named is rat. As to conditions: Subchronic oral toxicity in rodents, fischer, Gavage/Intubation, dose end: 24 week, group: systemic.
For series [15], the system named is mouse. The following applies: Multigenerational reproductive toxicity study, cd1, Oral, Feed, dose end: 2 generation.
In series [16] the test system is rat. The following applies: Carcinogenicity, fischer, Oral, Feed, dose end: 103 week, group: systemic.
Series [17] has as its system mouse. As to conditions: Subchronic oral toxicity in rodents, b6c3f1, Feed, dose end: 13 week, group: systemic.
Series [18] relates to rat. As to conditions: Sub-acute repeat dose toxicity, fischer, Oral, Feed, dose end: 14 day, group: systemic.
The test system of series [19] is rat. The following applies: Subchronic oral toxicity in rodents, fischer, Feed, dose end: 13 week, group: systemic.
Series [20] deals with mouse. The following applies: Carcinogenicity, b6c3f1, Oral, Feed, dose end: 103 week, group: systemic.
Series [21] relates to rat. The following applies: Developmental neurotoxicity study; long evans; Injection; Subcutaneous; dose end: 90 PND; group: cannot be grouped; reproductive / reproductive performance / sex ratio / sex ratio (% male).
Where [22] appears, read: group: offspring, systemic / in life observation / body weight / offspring (pup) weight + systemic / in life observation / body weight / offspring (pup) ….
[23] abbreviates: group: parental, systemic / organ weight / liver / relative to body weight.
The mark [24] stands for this setting: systemic / clinical chemistry / cholesterol / cholesterol + systemic / in life observation / body weight / body weight gain + systemic / ….
Where [25] appears, read: systemic / in life observation / body weight / body weight gain.
Setting [26] is: systemic / in life observation / body weight / body weight + systemic / in life observation / body weight / body weight gain + systemic / ….
Setting [27] is: systemic / pathology microscopic / prostate / atrophy + systemic / pathology microscopic / testes / atrophy.
Setting [28] is: systemic / pathology microscopic / prostate / atrophy + systemic / pathology microscopic / testes / atrophy + systemic / pathology ….
Setting [29] is: systemic / in life observation / body weight / body weight gain + systemic / in life observation / water consumption / water consumption + ….
Where [30] appears, read: systemic / in life observation / water consumption / water consumption.
Where [31] appears, read: systemic / pathology microscopic / blood / leukemia + systemic / pathology microscopic / stomach / carcinoma + systemic / pathology ….
Setting [32] is: systemic / pathology microscopic / stomach / carcinoma + systemic / pathology microscopic / stomach / papilloma + systemic / pathology ….
The mark [33] stands for this setting: systemic / in life observation / body weight / body weight gain + systemic / in life observation / mortality / mortality + systemic / ….
Where [34] appears, read: group: offspring, systemic / in life observation / body weight / offspring (pup) weight.
Setting [35] is: group: parental, systemic / in life observation / body weight / body weight + systemic / organ weight / brain / relative to body weight + systemic / organ ….
Where [36] appears, read: group: reproductive, reproductive / offspring survival early / birth index / birth index + reproductive / offspring survival early / live fetuses / live fetuses.
Where [37] appears, read: systemic / pathology microscopic / kidney / nephropathy.
Setting [38] is: systemic / pathology microscopic / kidney / nephropathy + systemic / pathology microscopic / kidney / hyperplasia + systemic / pathology ….
Setting [39] is: systemic / in life observation / body weight / body weight + systemic / pathology microscopic / liver / mineralization + systemic / ….
Setting [40] is: systemic / in life observation / food consumption / food consumption.
[41] abbreviates: systemic / in life observation / food consumption / food consumption + systemic / in life observation / body weight / body weight.
[42] abbreviates: systemic / organ weight / kidney / relative to body weight + systemic / organ weight / liver / relative to body weight.
Where [43] appears, read: systemic / in life observation / body weight / body weight + systemic / pathology microscopic / thyroid gland / hyperplasia.

Results on 5 molecules are retold here after EPA's ToxRefDB 2.

What is called LOAEL is the lowest tested level that showed an adverse finding. What is called NOAEL is the highest tested level that showed no adverse finding.

In the case of `CC1OC(C)OC(C)OC(C)O1` (stereo unspecified) [Metaldehyde acetaldehyde tetramer], the LEL turned out to be 178 mg/kg/day in the series with mouse [1]; 135 mg/kg/day with mouse [2]; 134 mg/kg/day in the series on rat [3] (setting [22]); 80.5 mg/kg/day in the series with rat [3] (group: parental, systemic / in life observation / body weight / body weight + systemic / in life observation / body weight / body weight gain); 3 mg/kg/day in the series on rat [4] (setting [25]); 48.9 mg/kg/day with mouse [5]. In addition, the LEL in the series with dog [6] (setting [26]) stood at 10 mg/kg/day; in the series on dog [7] (setting [27]) it was 60 mg/kg/day. Besides, the LOAEL worked out at 178 mg/kg/day in the series on mouse [1]; 135 mg/kg/day in the series on mouse [2]; 134 mg/kg/day with rat [3] (setting [22]); 134 mg/kg/day with rat [3] (setting [23]); 44 mg/kg/day in the series on rat [4] (setting [24]); 48.9 mg/kg/day with mouse [5]. Further, the lowest-observed-adverse-effect level (LOAEL) in the series with dog [6] (systemic / in life observation / mortality / mortality + systemic / pathology microscopic / prostate / atrophy + systemic / pathology …) was 30 mg/kg/day; in the series with dog [7] (setting [27]), 60 mg/kg/day. Moreover, the NEL with mouse [1] is 54 mg/kg/day; in the series on mouse [2] it was less than 135 mg/kg/day; with rat [3] (setting [22]) it was 64.9 mg/kg/day; in the series with rat [3] (group: parental, systemic / in life observation / body weight / body weight + systemic / in life observation / body weight / body weight gain + systemic / in…), 4.03 mg/kg/day; with rat [4] (setting [25]) it was less than 3 mg/kg/day; with mouse [5] it was 15.9 mg/kg/day. The NEL is less than 10 mg/kg/day in the series with dog [6] (setting [26]) and 20 mg/kg/day in the series with dog [7] (setting [28]). Further, the no observed adverse effect level (NOAEL) is 54 mg/kg/day in the series with mouse [1]; less than 135 mg/kg/day in the series on mouse [2]; 64.9 mg/kg/day in the series on rat [3] (setting [22]); 64.9 mg/kg/day with rat [3] (setting [23]); 2 mg/kg/day in the series on rat [4] (setting [24]); 15.9 mg/kg/day in the series with mouse [5]. In addition, the NOAEL was determined as 10 mg/kg/day with dog [6] (systemic / in life observation / mortality / mortality + systemic / clinical chemistry / alkaline phosphatase (alp/alk) / alkaline …) and 20 mg/kg/day in the series on dog [7] (setting [28]).
Consider `O=c1[nH]cc(F)c(=O)[nH]1` [5-Fluorouracil], for which, in the series on rat [8] (setting [29]), the LOAEL was greater than 7.42 mg/kg/day and the NOAEL is no less than 7.42 mg/kg/day. In the series with rat [8] (setting [30]), this molecule had an LEL of 3.85 mg/kg/day and an NEL of less than 3.85 mg/kg/day. Besides, in the series with mouse [9], the LEL stood at 30 mg/kg/day, the LOAEL was greater than 30 mg/kg/day, the NEL was less than 30 mg/kg/day and the no observed adverse effect level (NOAEL) is no less than 30 mg/kg/day.
In the case of `c1ccc(C2CO2)cc1` (stereo unspecified) [Styrene oxide], the LEL came to 900 mg/kg/day in the series with mouse [10]; 375 mg/kg/day in the series with mouse [11]; 275 mg/kg/day in the series with rat [12] (setting [32]); 50 mg/kg/day in the series with rat [13]; 750 mg/kg/day with rat [14] (systemic / pathology microscopic / liver / hyperplasia). For the same molecule, the LOAEL is greater than 900 mg/kg/day in the series with mouse [10]; greater than 750 mg/kg/day in the series on mouse [11]; greater than 550 mg/kg/day in the series with rat [12] (setting [31]); greater than 250 mg/kg/day in the series on rat [13]; greater than 3000 mg/kg/day in the series with rat [14] (setting [33]). Moreover, the NEL with mouse [10] was 600 mg/kg/day; with mouse [11] it was less than 375 mg/kg/day; in the series with rat [12] (setting [32]) it was less than 275 mg/kg/day; with rat [13], less than 50 mg/kg/day; in the series on rat [14] (setting [33]) it was 360 mg/kg/day. Further, the NOAEL in the series on mouse [10] was no less than 900 mg/kg/day; in the series on mouse [11] it was no less than 750 mg/kg/day; in the series on rat [12] (setting [31]), no less than 550 mg/kg/day; in the series with rat [13], no less than 250 mg/kg/day; with rat [14] (setting [33]) it was no less than 3000 mg/kg/day.
For the molecule `CC(=O)Nc1ccc(O)cc1` [Acetaminophen], the LEL with mouse [15] (setting [34]) turned out to be 357 mg/kg/day; in the series on mouse [15] (setting [35]), 1430 mg/kg/day; in the series with mouse [15] (setting [36]), 1430 mg/kg/day; in the series with rat [16] (setting [38]) it was 30 mg/kg/day; with mouse [17] (systemic / pathology microscopic / liver / cytomegaly + systemic / pathology microscopic / liver / karyomegaly + systemic / pathology …), 930 mg/kg/day; in the series on rat [18] (setting [41]) it was 625 mg/kg/day. The LEL turned out to be 40 mg/kg/day with rat [19] (setting [42]) and 90 mg/kg/day in the series on mouse [20] (setting [43]). Further, the LOAEL in the series on mouse [15] (setting [34]) was greater than 1430 mg/kg/day; in the series on mouse [15] (setting [35]) it was greater than 1430 mg/kg/day; with mouse [15] (setting [36]), greater than 1430 mg/kg/day; in the series on rat [16] (setting [37]) it was 30 mg/kg/day; in the series on mouse [17] (setting [39]), 1880 mg/kg/day; with rat [18] (setting [41]) it was 625 mg/kg/day. Moreover, the lowest-observed-adverse-effect level (LOAEL) in the series with rat [19] (systemic / in life observation / body weight / body weight + systemic / pathology microscopic / liver / cytomegaly + systemic / pathology …) amounted to 625 mg/kg/day; in the series with mouse [20] (systemic / in life observation / body weight / body weight) it was 1000 mg/kg/day. In addition, the NEL with mouse [15] (setting [34]) was less than 357 mg/kg/day; in the series with mouse [15] (setting [35]), 715 mg/kg/day; with mouse [15] (group: reproductive, reproductive / offspring survival early / birth index / birth index) it was 715 mg/kg/day; with rat [16] (setting [38]), less than 30 mg/kg/day; in the series on mouse [17] (setting [39]), 480 mg/kg/day; in the series with rat [18] (setting [40]), 310 mg/kg/day. Also, the NEL is less than 40 mg/kg/day in the series on rat [19] (setting [42]) and less than 90 mg/kg/day in the series on mouse [20] (setting [43]). Besides, the no observed adverse effect level (NOAEL) with mouse [15] (setting [34]) is no less than 1430 mg/kg/day; in the series on mouse [15] (setting [35]), no less than 1430 mg/kg/day; in the series on mouse [15] (setting [36]), no less than 1430 mg/kg/day; with rat [16] (setting [37]) it was less than 30 mg/kg/day; with mouse [17] (setting [39]), 930 mg/kg/day; with rat [18] (setting [40]), 310 mg/kg/day. The NOAEL in the series with rat [19] (systemic / in life observation / body weight / body weight + systemic / in life observation / clinical signs / reduced body size + systemic…) was determined as 310 mg/kg/day; in the series on mouse [20] (setting [43]) it was 450 mg/kg/day.
Take `CCN(CC)CC(=O)Nc1c(C)cccc1C` [Lidocaine]: in the series on rat [21], the LEL amounted to 6 mg/kg/day, the lowest-observed-adverse-effect level (LOAEL) is greater than 9 mg/kg/day, the NEL was found to be 3 mg/kg/day and the NOAEL is no less than 9 mg/kg/day.
